Key:
Assay type in all cases: cell-based
[1] = system: MDA-MB-231 (breast); assay: SRB anti-tumour (growth inhibition) assay, MDA-MB-231; settings: Homo sapiens, 48 h exposure, read-out: GI50 (concentration inhibiting 50% of cell growth)
Method: (§1) The compounds generated were tested against a series of cell lines from tumours. It quantitatively determined the cell growth and the viability, using a colorimetric assay type, using the reaction with sulforhodamine B (SRB), according to the technique described by Faircloth et al. (Journal of Tissue and Culture Methods 1988, 11, 201-205).
(§2) 96-well microtitre plates are inoculated with cells (5×10^3 cells per well) in aliquots of 195 μl of medium, incubating them during 18 h, in a medium without added compound, to allow the cells to adhere to the surface. Next, the compounds to be tested are added, in samples of 5 μl, at a range of concentrations of 10 to 10^−8 μg/ml, dissolved in DMSO/EtOH (0.2% in PS buffer). After 48 h exposure, the anti-tumour effect is measured using the Sulforhodamine B (SRB) technique: the cells are fixed adding 50 μl of cold […] (50%) (w/v) and it is incubated for 60 min. at 4° C. The plates are washed with deionized water and dried. 100 μl of SRB solution (0.4% w/v in 1% acetic acid) to each well and it is incubated during 10 min. at ambient temperature. The non-bound SRB is eliminated, washing with 1% acetic acid. The plates are air dried and the bound colorant is dissolved with Tris buffer. The optical densities are read in an automatic plate spectrophotometer reader at a wavelength of 490 nm.
(§3) For the compounds of formula (III), (IV), (V), (VI), (VII), (VIII), (IX) and the compounds of formula (XII), (XIII), (XIV), (XV), (XVI) and (XVIII).

[2] = system: A549 (lung); assay: SRB anti-tumour (growth inhibition) assay, A549; settings: Homo sapiens, 48 h exposure, read-out: GI50 (concentration inhibiting 50% of cell growth)
Method: as §1, §2, §3

[3] = system: HT29 (colon); assay: SRB anti-tumour (growth inhibition) assay, HT29; settings: Homo sapiens, HT-29, 48 h exposure, read-out: GI50 (concentration inhibiting 50% of cell growth)
Method: as §1, §2, §3

SMILES | GI50 [1] [µM] | GI50 [2] [µM] | GI50 [3] [µM]
CN[C@@H]1C[C@H]2O[C@@](C)([C@@H]1OC)n1c3ccccc3c3c4c(c5c6ccccc6n2c5c31)C(=O)NC4 [STP, staurosporine, reference compound] | 0.013 | 0.008 | 0.076
CO[C@H]1[C@H](O)[C@@H](O)[C@H](n2c3c(Cl)cccc3c3c4c(c5c6cccc(Cl)c6[nH]c5c32)C(=O)NC4=O)O[C@@H]1CO [RBM, rebeccamycin, reference compound] |  | 0.76 | 1.55
